According to paper PMC4917448 (Journal of biomolecular screening, 2016):
“Also recorded” adds a separate entry of the source.

Assays:
[1] = CellTiter-Glo cell viability assay in hNSC; type: cell-based, human; settings: human, human neural stem cells (hNSC)
human neural stem cells = experiment: CellTiter-Glo cell viability assay in hNSC; type: cell-based; settings: for IC50: Homo sapiens, Neural stem cell, 1 h, read-out: Viability: IC50, hNSC
HDAC I/II [2] = experiment: HDAC-Glo I/II assay in HCT116 cells; type: cell-based, human; settings: for HDAC-Glo: Efficacy, HCT116 / Efficacy, HDAC-Glo I/II HCT116 assay: maximal response
[3] = CellTiter-Glo cell viability assay in HCT116; type: cell-based, human; settings: human, HCT116 cells
HCT116 cells = experiment: CellTiter-Glo cell viability assay in HCT116; type: cell-based, human; settings: for IC50: Homo sapiens, HCT-116, 1 h, read-out: Viability: IC50, HCT116
HDAC I/II [4] = experiment: HDAC-Glo I/II assay in human neural stem cells; type: cell-based; settings: cherry-pick confirmation; for HDAC-Glo: Efficacy, hNSC: maximal response; for IC50: read-out: HDAC-Glo: IC50, hNSC, 11 concentrations, 1 hour
HDAC3 = HDAC3 (Homo sapiens, UniProt O15379); experiment: Fluorogenic isoform-specific HDAC assay, HDAC3; type: biochemical
Sequence of HDAC3 (O15379 whole entry, canonical isoform): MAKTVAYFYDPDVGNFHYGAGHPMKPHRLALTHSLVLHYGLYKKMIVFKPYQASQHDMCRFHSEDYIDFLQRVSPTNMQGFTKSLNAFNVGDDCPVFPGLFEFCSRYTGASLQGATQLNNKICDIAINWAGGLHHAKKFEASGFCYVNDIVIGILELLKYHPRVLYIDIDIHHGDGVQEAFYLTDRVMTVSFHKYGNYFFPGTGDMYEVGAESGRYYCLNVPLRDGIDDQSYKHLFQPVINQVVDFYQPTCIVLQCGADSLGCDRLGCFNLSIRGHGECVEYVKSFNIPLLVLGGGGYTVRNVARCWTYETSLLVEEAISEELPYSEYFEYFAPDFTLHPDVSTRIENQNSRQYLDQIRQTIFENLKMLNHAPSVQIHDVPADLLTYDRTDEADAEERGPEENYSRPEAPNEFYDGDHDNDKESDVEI
Sequence of HDAC3 (Q9Y618 395-489 partner limits assumed): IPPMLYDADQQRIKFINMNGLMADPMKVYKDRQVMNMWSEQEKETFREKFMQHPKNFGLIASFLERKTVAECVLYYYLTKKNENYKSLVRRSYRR

HDAC9 = HDAC9 (Homo sapiens, UniProt Q9UKV0); experiment: Fluorogenic isoform-specific HDAC assay, HDAC9; type: biochemical
Sequence of HDAC9 (Q9UKV0 whole entry, canonical isoform): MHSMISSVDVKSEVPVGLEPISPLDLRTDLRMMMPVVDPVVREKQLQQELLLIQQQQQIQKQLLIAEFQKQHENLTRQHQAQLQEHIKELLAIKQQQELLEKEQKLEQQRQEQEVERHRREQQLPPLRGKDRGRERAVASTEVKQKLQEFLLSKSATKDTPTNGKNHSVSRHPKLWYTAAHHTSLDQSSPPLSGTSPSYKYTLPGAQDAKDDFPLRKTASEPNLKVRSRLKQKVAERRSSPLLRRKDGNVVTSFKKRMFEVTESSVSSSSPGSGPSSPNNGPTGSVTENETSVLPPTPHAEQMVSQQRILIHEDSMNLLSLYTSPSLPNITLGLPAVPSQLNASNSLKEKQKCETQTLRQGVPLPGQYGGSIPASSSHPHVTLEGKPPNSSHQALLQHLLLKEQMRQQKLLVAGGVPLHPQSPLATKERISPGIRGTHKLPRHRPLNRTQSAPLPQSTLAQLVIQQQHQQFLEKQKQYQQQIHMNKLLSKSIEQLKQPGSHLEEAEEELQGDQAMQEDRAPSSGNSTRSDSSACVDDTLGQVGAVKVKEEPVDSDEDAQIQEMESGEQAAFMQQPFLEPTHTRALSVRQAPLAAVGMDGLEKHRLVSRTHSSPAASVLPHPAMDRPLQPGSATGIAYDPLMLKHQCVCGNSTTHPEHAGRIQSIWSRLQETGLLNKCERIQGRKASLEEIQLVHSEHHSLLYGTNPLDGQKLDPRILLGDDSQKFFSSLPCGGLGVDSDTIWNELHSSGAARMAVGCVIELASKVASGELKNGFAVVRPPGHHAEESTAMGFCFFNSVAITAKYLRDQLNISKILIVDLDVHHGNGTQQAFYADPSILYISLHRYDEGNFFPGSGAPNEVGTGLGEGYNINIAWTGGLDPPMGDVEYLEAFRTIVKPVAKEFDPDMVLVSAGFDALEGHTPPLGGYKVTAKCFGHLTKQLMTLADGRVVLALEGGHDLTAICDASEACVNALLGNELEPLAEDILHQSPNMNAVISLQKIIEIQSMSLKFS

HDAC6 = biological target: T1, HDAC6 (Homo sapiens, UniProt Q9UBN7); experiment: Fluorogenic isoform-specific HDAC assay, HDAC6; type: biochemical
T1 sequence (Q9UBN7 1-1215): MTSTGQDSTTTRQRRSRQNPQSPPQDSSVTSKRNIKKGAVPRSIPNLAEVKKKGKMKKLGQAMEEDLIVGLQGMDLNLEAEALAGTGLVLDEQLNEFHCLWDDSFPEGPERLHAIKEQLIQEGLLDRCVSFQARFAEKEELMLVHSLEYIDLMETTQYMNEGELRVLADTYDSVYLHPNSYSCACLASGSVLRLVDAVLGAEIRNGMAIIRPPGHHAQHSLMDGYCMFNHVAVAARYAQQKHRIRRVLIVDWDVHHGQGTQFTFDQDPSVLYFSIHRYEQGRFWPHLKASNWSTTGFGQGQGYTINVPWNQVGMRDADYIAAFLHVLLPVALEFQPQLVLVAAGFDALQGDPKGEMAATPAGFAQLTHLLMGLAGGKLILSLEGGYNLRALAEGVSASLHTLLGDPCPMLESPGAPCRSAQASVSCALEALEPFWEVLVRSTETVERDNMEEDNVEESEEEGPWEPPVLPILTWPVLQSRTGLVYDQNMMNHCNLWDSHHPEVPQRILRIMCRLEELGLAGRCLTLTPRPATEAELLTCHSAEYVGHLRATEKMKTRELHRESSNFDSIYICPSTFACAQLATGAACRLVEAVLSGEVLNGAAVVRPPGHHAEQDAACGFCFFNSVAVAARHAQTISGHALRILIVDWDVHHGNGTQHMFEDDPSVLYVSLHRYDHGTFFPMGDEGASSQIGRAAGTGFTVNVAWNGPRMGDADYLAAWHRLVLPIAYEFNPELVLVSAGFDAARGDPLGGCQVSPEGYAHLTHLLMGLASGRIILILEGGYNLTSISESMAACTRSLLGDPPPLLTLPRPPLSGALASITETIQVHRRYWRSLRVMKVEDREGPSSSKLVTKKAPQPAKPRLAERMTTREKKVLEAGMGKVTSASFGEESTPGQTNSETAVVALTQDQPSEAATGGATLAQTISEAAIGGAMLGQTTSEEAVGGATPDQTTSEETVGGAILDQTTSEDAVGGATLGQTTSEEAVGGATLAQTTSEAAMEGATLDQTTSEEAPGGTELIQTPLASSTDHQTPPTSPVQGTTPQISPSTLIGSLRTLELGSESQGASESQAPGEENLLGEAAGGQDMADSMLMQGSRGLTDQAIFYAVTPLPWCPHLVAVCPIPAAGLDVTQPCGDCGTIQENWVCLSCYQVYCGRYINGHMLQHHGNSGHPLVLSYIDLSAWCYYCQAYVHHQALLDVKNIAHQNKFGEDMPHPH

HDAC2 = HDAC2 (Homo sapiens, UniProt Q92769); experiment: Fluorogenic isoform-specific HDAC assay, HDAC2; type: biochemical
Sequence of HDAC2 (Q92769 whole entry, canonical isoform): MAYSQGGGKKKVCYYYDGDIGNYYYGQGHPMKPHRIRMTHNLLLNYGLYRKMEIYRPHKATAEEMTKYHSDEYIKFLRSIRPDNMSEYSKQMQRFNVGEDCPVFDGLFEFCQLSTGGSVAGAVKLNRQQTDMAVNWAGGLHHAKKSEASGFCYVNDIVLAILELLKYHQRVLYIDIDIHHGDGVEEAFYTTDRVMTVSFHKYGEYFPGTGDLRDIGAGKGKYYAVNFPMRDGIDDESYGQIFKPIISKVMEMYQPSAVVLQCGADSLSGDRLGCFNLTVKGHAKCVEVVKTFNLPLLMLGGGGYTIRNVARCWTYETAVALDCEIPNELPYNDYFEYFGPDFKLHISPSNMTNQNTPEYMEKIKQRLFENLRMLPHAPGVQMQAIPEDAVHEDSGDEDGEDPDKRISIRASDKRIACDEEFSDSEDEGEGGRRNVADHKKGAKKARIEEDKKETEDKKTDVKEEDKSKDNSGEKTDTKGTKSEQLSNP

[5] = test system: class I and II HDAC enzymes; experiment: Panel of fluorogenic assays against ten class I and II HDAC isoforms; type: biochemical, human; settings: red-shifted versions of fluorogenic assays, Figure 4A, 4B
HDAC4 = HDAC4 (Homo sapiens, UniProt P56524); experiment: Fluorogenic isoform-specific HDAC assay, HDAC4; type: biochemical
Sequence of HDAC4 (P56524 whole entry, canonical isoform): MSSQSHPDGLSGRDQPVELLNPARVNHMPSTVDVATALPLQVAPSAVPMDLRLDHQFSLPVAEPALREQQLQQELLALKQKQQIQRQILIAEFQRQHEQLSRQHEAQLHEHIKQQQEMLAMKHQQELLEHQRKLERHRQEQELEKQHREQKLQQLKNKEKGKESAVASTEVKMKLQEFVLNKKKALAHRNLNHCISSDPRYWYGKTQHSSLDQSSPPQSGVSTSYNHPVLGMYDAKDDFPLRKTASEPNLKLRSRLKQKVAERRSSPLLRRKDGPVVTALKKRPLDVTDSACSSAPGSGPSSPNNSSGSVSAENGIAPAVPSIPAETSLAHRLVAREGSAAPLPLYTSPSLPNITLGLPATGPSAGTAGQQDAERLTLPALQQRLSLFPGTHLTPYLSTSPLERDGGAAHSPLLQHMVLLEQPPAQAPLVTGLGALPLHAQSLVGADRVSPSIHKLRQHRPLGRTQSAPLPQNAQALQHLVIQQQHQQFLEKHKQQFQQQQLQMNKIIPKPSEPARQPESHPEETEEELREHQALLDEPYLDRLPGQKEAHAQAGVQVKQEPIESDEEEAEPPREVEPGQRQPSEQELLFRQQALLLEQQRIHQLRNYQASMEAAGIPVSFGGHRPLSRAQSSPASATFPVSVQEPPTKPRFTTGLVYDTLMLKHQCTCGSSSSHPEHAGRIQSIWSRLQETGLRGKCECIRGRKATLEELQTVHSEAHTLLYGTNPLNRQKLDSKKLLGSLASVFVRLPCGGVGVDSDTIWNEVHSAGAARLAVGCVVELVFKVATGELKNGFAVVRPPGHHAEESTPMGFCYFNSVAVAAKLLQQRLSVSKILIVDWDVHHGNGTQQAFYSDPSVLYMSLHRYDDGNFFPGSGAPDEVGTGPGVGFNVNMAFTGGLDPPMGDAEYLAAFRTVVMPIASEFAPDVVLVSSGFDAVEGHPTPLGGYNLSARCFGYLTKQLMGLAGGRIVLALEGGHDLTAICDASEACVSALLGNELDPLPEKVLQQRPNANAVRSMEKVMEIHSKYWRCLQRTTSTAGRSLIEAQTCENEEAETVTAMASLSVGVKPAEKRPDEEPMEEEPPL

HDAC1 = HDAC1 (Homo sapiens, UniProt Q13547); experiment: Fluorogenic isoform-specific HDAC assay, HDAC1; type: biochemical
Sequence of HDAC1 (Q13547 whole entry, canonical isoform): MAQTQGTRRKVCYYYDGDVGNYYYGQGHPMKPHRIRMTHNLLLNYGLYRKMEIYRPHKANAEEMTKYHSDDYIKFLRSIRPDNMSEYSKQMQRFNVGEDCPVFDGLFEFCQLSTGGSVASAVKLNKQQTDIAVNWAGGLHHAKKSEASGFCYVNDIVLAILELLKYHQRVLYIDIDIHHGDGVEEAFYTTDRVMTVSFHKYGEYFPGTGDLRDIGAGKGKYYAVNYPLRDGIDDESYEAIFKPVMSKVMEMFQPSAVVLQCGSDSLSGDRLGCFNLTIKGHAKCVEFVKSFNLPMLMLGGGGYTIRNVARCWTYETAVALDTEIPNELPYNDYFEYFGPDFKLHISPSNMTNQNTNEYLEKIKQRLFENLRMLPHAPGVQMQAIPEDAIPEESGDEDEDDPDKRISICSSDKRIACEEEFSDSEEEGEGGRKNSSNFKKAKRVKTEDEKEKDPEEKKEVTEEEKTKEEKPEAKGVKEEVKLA

HDAC8 = biological target: T2, HDAC8 (Homo sapiens, UniProt Q9BY41); experiment: Fluorogenic isoform-specific HDAC assay, HDAC8; type: biochemical
T2 sequence (Q9BY41 1-377): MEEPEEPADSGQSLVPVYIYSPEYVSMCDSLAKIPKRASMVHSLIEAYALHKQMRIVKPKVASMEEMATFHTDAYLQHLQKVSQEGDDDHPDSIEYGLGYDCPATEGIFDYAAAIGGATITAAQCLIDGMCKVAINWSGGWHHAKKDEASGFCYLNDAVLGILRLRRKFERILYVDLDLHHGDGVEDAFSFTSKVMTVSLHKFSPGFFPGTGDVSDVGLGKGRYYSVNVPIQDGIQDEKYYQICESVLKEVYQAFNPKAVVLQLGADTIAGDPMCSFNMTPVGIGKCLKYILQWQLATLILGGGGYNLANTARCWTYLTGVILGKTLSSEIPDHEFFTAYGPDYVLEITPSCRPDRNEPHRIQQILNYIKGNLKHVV

HDAC5 = HDAC5 (Homo sapiens, UniProt Q9UQL6); experiment: Fluorogenic isoform-specific HDAC assay, HDAC5; type: biochemical
Sequence of HDAC5 (Q9UQL6 whole entry, canonical isoform): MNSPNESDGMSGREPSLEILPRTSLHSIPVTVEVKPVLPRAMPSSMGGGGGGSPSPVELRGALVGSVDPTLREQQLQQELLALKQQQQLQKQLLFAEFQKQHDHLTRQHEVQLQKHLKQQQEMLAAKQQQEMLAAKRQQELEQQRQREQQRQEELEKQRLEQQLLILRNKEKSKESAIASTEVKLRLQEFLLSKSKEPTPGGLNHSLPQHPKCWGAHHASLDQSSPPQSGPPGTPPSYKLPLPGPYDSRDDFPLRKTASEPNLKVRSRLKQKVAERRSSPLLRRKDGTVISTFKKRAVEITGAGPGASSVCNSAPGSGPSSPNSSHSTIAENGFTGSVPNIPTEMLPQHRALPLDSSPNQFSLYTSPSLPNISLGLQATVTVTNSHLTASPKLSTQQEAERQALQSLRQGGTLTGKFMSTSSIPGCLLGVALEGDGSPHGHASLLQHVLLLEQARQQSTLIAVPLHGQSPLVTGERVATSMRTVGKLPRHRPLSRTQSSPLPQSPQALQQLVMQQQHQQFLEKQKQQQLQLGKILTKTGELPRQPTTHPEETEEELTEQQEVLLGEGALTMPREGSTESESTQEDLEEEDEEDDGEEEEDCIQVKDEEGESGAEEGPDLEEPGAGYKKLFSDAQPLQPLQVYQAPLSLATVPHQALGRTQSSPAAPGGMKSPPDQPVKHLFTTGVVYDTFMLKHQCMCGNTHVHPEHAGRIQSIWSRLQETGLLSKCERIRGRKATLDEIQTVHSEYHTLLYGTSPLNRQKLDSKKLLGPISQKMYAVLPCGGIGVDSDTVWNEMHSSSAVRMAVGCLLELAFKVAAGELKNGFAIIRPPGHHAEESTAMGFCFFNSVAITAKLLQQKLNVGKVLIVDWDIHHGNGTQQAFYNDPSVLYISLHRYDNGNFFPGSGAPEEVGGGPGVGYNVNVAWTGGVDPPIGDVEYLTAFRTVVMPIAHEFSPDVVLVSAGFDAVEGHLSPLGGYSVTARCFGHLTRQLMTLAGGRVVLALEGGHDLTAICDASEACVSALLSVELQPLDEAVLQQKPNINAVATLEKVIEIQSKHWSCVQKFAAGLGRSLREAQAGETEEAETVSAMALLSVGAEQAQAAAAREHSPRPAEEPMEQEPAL

[6] = read-out: HDAC-Glo: IC50, HCT116, cherry-pick confirmation, 11 concentrations, 1 hour
[7] = read-out: IC50, HDAC-Glo I/II HCT116 assay, powder confirmation
[8] = cherry-pick confirmation, 1 hour

| SMILES | viability at 1 h [1] | IC50 (human neural stem cells) | HDAC-Glo: Efficacy, HCT116 (HDAC I/II [2]; cherry-pick confirmation) | IC50 (HDAC I/II [2]; [6]) | viability at 1 h [3] | IC50 (HCT116 cells) | HDAC-Glo: Efficacy, hNSC (HDAC I/II [4]) | IC50 (HDAC I/II [4]) | Efficacy, HDAC-Glo I/II HCT116 assay (HDAC I/II [2]; powder confirmation) | IC50 (HDAC I/II [2]; [7]) | other results |
| --- | --- | --- | --- | --- | --- | --- | --- | --- | --- | --- | --- |
| O=C(O)c1cccc(-c2noc(-c3ccccc3F)n2)c1 [Ataluren (PTC-124), Ataluren] | 86 ± 60.2% | 14300 ± 930 nM | 111 ± 4% | 830 nM | 103% | 14400 ± 2450 nM | 109 ± 3% | 800 ± 50 nM |  |  |  |
| O=S(=O)(O)c1ccc2[nH]c(-c3ccccc3)nc2c1 [Ensulizole] | 58% | 16000 ± 1040 nM | 116 ± 5% | 6130 ± 3060 nM | 70% | 13400 ± 2800 nM | 111 ± 1% | 1940 ± 970 nM | 98 ± 0% | 1660 ± 730 nM | inhibition of HDAC3 (in words) (HDAC3; 20 μM): selectively inhibited; also recorded: selective to HDAC3 |
| N=C(N)c1ccc2cc(OC(=O)c3ccc(N=C(N)N)cc3)ccc2c1 [Nafamostat] |  |  | 116 ± 3% | 1110 ± 250 nM |  |  | 108 ± 1% | 360 ± 140 nM | 99 ± 0% | 120 ± 30 nM | IC50 (HDAC9): 1550 nM; Viability: IC50, hNSC (human neural stem cells; [8]): Inactive; IC50 (HDAC6): 4390 nM; IC50 (HDAC2): 4690 nM; Viability: IC50, HCT116 (HCT116 cells; [8]): Inactive; inhibition of HDAC-Glo I/II luminescence signals (HDAC I/II [4]; hNSCs, Figure 2): completely inhibited; isoform selectivity [5]: more selective in inhibiting HDAC4, HDAC5, and HDAC8 than other HDAC isoforms; IC50 (HDAC3): 4040 nM; IC50 (HDAC4): 1490 nM; IC50 (HDAC1): 4670 nM; IC50 (HDAC8): 1520 nM; IC50 (HDAC5): 1330 nM |
